From US20130296347A1, “Compositions and Methods for Prophylaxis and Treatment of Addictions” (Omeros Corporation, priority 2007, published 2013)
Entries after “also recorded” stand apart in the source; their conditions may differ.

Columns and labels:
[1] = tested on: msP rats; experiment: Acute voluntary ethanol intake, free choice 10% alcohol 24 hours a day; type: in vivo, rat
Procedure: MsP rats were first trained to drink 10% (w/v) alcohol for 24 hours a day (free choice between water and ethanol). […] Before starting the treatment, rats were trained to gavage administration procedures for three days, during which they received vehicle (distilled water). […] Drinking experiments started at the beginning of the dark cycle. Alcohol, water and food intakes were monitored at 2, 8 and 24 hours after ethanol was made available.
Before starting the treatment, rats were trained to gavage and IP administration procedures for three days. Experiment was conducted in a between subject design (n=22). […] Drinking experiments started at the beginning of the dark cycle. Alcohol, water and food intakes were monitored at 2, 8 and 24 hours after ethanol was made available.
The drinking experiments were conducted at the beginning of the dark cycle, and alcohol, water and food intakes were monitored at 2, 8 and 24 hours after ethanol was made available.
MsP rats were first trained to drink 10% (w/v) alcohol for 24 hours a day (free choice between water and ethanol). […] Rats treated with drug vehicles served as a control. Before starting the treatment, rats were trained to gavage administration for three days, during which they received drugs vehicle (distilled water). […] Drinking experiments started at the beginning of the dark cycle. Alcohol, water, and food intakes were monitored at 2, 8 and 24 hours after ethanol was made available.
(§1) MsP rats were first trained to drink 10% (w/v) alcohol for 24 hours a day (free choice between water and ethanol). […] Rats treated with drug vehicles served as a control. Before starting the treatment, rats were trained to gavage administration for three days, during which they received drugs vehicle (distilled water). […] Drinking experiments started at the beginning of the dark cycle. Alcohol, water and food intakes were monitored at 2, 8 and 24 hours after ethanol was made available.
as §1, §1, §1, §1

[2] = tested on: msP rats; experiment: Cue-induced reinstatement of alcohol seeking; type: in vivo, rat; settings: pioglitazone 10.0, 30.0 mg/kg at 12 hours and 1 hour before test
Procedure: Cue-induced reinstatement of alcohol-seeking behaviour experimental procedures consisted of three phases: (1) conditioning phase; (2) extinction phase; and (3) reinstatement phase, as described below.
For the conditioning phase, at the completion of the fading procedure (see above), in 30 min daily sessions, animals were trained to discriminate between 10% alcohol and water. Beginning with self-administration training at the 10% alcohol concentration, discriminative stimuli (SD) predictive of alcohol versus water availability were presented during the alcohol and water self-administration sessions, respectively. The discriminative stimulus for alcohol consisted of the odour of an orange extract (S^+) whereas water availability (i.e. no reward) was signalled by an anise extract (S^−). The olfactory stimuli were generated by depositing six to eight drops of the respective extract into the bedding of the operant chamber. In addition, each lever-press resulting in delivery of alcohol was paired with illumination of the chamber's house light for 5 sec (CS^+). The corresponding cue during water sessions was a 5 second tone (70 dB) (CS). Concurrently with the presentation of these stimuli, a 5 sec. time-out period was in effect, during which responses were recorded but not reinforced. The olfactory stimuli serving as S^+ or S^− for alcohol availability were introduced one minute before extension of the levers and remained present throughout the 30-min. sessions. The bedding of the chamber was changed and bedding trays were cleaned between sessions. During the first three days of the conditioning phase, the rats were given alcohol sessions only. Subsequently, alcohol and water sessions were conducted in random order across training days, with the constraint that all rats received a total of 10 alcohol and 10 water sessions.
For the extinction phase, after the last conditioning day, rats were subjected to 30-min extinction sessions for 15 consecutive days. During this phase, sessions began by extension of the levers without presentation of the SD. […]

[3] = tested on: CD mice; experiment: Tail-flick test, morphine-induced analgesic tolerance; type: in vivo, mouse; settings: pioglitazone alone 10 or 30 mg/kg
Procedure: All procedures were conducted in adherence to the European Community Council Directive for Care and Use of Laboratory Animals.
Mice were divided into 6 groups. Group 1 (n=8) received drug vehicles (veh/veh). […] Animals were treated twice daily (between 9:00 and 10:00 a.m. and 9:00 and 10:00 p.m.).
Morphine hydrochloride was purchased from Salars (Milano, Italy). Morphine (30 mg/kg) was dissolved in NaCl […] and was injected intraperitoneally (IP) twice a day at the indicated doses in a volume of 0.2 ml per mice. […] It was dissolved in distilled water and was administered per o.s. at the doses of 10 mg/kg and 30 mg/kg in a volume of 0.6 ml per mice.
Two different tests were used to monitor analgesic responses. The tail-flick test was performed 45 min after the morning injection of morphine, and the tail-immersion test was performed 45 min after the evening injection of morphine.
For the tail-flick test, each mouse was gently restrained in a soft tissue pocket, and the tail (1 cm from the tip) was exposed to a hot light beam. Latency for tail-flick was measured with a 6 seconds cut-off time. For the tail-immersion test, each mouse was restrained in a soft tissue pocket, and the distal half of the tail dipped into a water bath set at 52 C°. Latency for removing the tail from the hot water was measured with a 10 seconds cut-off time.

[4] = tested on: heavy tobacco smokers; experiment: Pilot clinical study in heavy tobacco smokers; type: in vivo, human
Procedure: Data were recorded for two months, during which patients were seen by the physician every other week. Patients were instructed to record in a personal logbook the number of cigarettes per day and the time of the day smoking occurred. At the end of the study, the logbooks were returned to the clinical personnel who analyzed the data. […] During the first month of treatment, every two weeks, ACTH and cortisol levels were also monitored to evaluate HPA activation before and during treatment.

[5] = tested on: Long Evans rats; experiment: Yohimbine-induced reinstatement of nicotine seeking; type: in vivo, rat; settings: pioglitazone all doses tested (5.0, 10.0 and 30.0 mg/kg), 12 and 1 hour before test
Procedure: Stress and anxiety are major factors in resuming nicotine use in former abstinent users. […] Reinstatement experiments and relative drug treatments were performed every third day. Between reinstatements, extinction baseline was re-established.

[6] = tested on: Wistar rats; experiment: Alcohol withdrawal score after six days of intermittent alcohol intoxication; type: in vivo, rat
Procedure: Male Wistar rats were subjected to a six days of intermittent alcohol intoxication. […] The first ethanol dose was given at the beginning of the dark phase. The other 3 daily doses were administered at intervals of 3 hours. Rats were not injected during the light phase of the light/dark cycle. […] Behavioural signs of withdrawal included: (1) presence of the ventromedial distal flexion response; (2) tail stiffness/rigidity; and (3) tremors (Schulteis et al. 1995). […] Schulteis, et al., 1995). All signs were cumulated to yield an overall withdrawal severity score.

[7] = tested on: Wistar rats; experiment: Acquisition of heroin self-administration (FR1); type: in vivo, rat
[8] = tested on: msP rats; experiment: Yohimbine-induced (stress) reinstatement of alcohol seeking
Description: Stress-induced reinstatement of alcohol-seeking experimental procedures consisted of three phases: (1) training phase; (2) extinction phase; and (3) reinstatement phase, as described below.
For the training phase, after completion of the fading procedure, msP rats were trained to self-administer 10% (v/v) alcohol for 15 days in 30-min daily sessions under a FR1 schedule of reinforcement. During the infusion, a stimulus house light was turned on for 5 s (time out; TO).
For the extinction phase, after the last alcohol self-administration session, animals were subjected to 30-min extinction sessions for 15 consecutive days.
The day after the last extinction session, rats were subjected to the reinstatement test.
Animals received all drug treatments according to a counterbalance Latin square design. A 3-day interval, during which animals were subjected to extinction sessions, was allowed between drug tests.

[9] = tested on: Wistar rats; experiment: FR5 cocaine self-administration; type: in vivo, rat; settings: pioglitazone both 10.0 and 30.0 mg/kg OS 12 hours and 1 hour before session
Procedure: […]. Drug or vehicle solution was infused at a volume of 0.1 ml over 4 s.
Male Wistar rats weighing between 180 and 200 g at the time of arrival in the lab were used. The rats were housed in groups of three in a humidity- and temperature-controlled (22° C.) vivarium on a 12 h: 12 h reverse light/dark cycle (on, 17:00; off, 05:00) with ad libitum access to food and water. One week after arrival, rats were subjected to surgery, and a silastic catheter was implanted into the right jugular vein.
Cocaine self-administration training continued until a stable baseline of responding was reached (less than 10% variation for 3 consecutive days calculated for each single rat). At this point, drug testing begun.
. […] A 3-day interval was allowed between drug testing. During these intervals, cocaine self-administration was continued to re-establish baseline lever responses.

[10] = pioglitazone 10 and 30 mg/kg, p<0.01

SMILES: CCc1ccc(CCOc2ccc(CC3SC(=O)NC3=O)cc2)nc1.Cl (stereo not drawn) [pioglitazone]
- ethanol intake, drug alone (post-hoc) ([1]; low dose given at 12 hours and 1 hour before access, pioglitazone 10 mg/kg OS, partner drugs at doses of the examples): did not significantly modify
- ethanol intake at 2 hours, drug alone ([1]; pioglitazone 10 mg/kg OS, topiramate 30.0 mg/kg OS, p<0.05): significant reduction
- ethanol consumption at 2 hours ([1]; pioglitazone 30 mg/kg OS): significantly reduced
- ethanol consumption at 8 hours ([1]; pioglitazone 30 mg/kg OS): significantly reduced
- ethanol consumption at 24 hours ([1]; pioglitazone 30 mg/kg OS): significantly reduced
- cue-induced (conditioned) reinstatement of alcohol-seeking [2]: not significantly modified; also recorded: lack of effect
- analgesic responses (tail-flick) [3]: did not differ from controls
- weekly smoked cigarettes, pioglitazone versus varenicline (post hoc) ([4]; human, in vivo): no significant differences
- craving score (visual analogic craving scale) ([4]; over treatment): highest reduction
- STAI anxiety score ([4]; over treatment weeks): significantly reduced
- weekly smoked cigarettes compared to bupropione (post hoc) ([4]; p<0.05): significant difference
- subjects reaching complete abstinence ([4]; pioglitazone 4 patients, varenicline 3 patients): One
- yohimbine-induced reinstatement of nicotine seeking [5]: prevented; also recorded: significantly (p<0.001) decreased
- alcohol withdrawal signs ([6]; pioglitazone 10 mg/kg and 30 mg/kg, 12 hours and 1 hour before rating): significantly reduced
- tail rigidity [6, 10]: highly significant effect
- tremors [6, 10]: highly significant effect
- ventromedial limb retraction [6, 10]: highly significant effect
- rats showing seizures during withdrawal ([6]; pioglitazone treated rats (two out of 7 vehicle animals showed convulsion)): none of the 12 rats
- heroin self-administration versus control, day 3 to day 8 ([7]; pioglitazone 30 mg/kg twice daily): significant difference
- acquisition of heroin self-administration ([7]; pioglitazone 30 mg/kg twice daily (12 hours and 1 hour prior to session)): significantly decreased
- yohimbine-induced reinstatement of alcohol seeking (active lever) ([8]; pioglitazone 10 mg/kg OS at 12 hours and 1 hour before test): clear trend (p=0.07) to an inhibition
- yohimbine-induced reinstatement of alcohol seeking (active lever) ([8]; pioglitazone 30 mg/kg OS at 12 hours and 1 hour before test, p<0.01): significant inhibition
- effect of yohimbine on reinstatement of responding, overall ([8]; pre-treatment with pioglitazone 10.0 and 30.0 mg/kg): significantly reduced; also recorded: markedly reduced
- cocaine self-administration [9]: significant (p<0.01) reduction
